Data as given in the NIST ThermoML archive (doi:10.1021/je8005979).
± gives the expanded uncertainty stated by the source.

Details: Crystal; visual observation

- Normal melting temperature: 62.7 ± 0.4 °C
SMILES: CCCCCCCCCCCCCCCC(=O)O [hexadecanoic acid]
